The target in data set [1] is T1, BRD4_2 (Homo sapiens, UniProt O60885).
T1 construct: contains two tandem bromodomains (BrD1 and BrD2)
Kind of data set: Fluorescence anisotropy binding assay (competition with FITC-labeled MS417 probe), BRD4_2. The settings on record: FITC-MS417 probe 80 nM, PBS pH 7.4, 1 hour, 25° C.

Data set [2] deals with T2, first bromodomain (BrD1) of human BRD4 (Homo sapiens, UniProt O60885).
T2 construct: the first bromodomain (BrD1) of human BRD4; poly-His (cleaved yes); made in house
Kind of data set: Fluorescence anisotropy binding assay (competition with FITC-labeled MS417 probe). The settings on record: FITC-MS417 probe 80 nM, PBS pH 7.4, 1 hour, 25° C., read-out: BRD4_1 IC50. The method, boiled down:
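BRD4 BrD1 (His tag removed by thrombin) at 0.25 to 1 μM competed against 80 nM FITC-labeled MS417 in PBS pH 7.4. Anisotropy read after 1 hour at 25° C. Ki derived from fitted IC50 by Nikolovska-Coleska-corrected Cheng-Prusoff equation, one-site competitive model.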

Regarding `CC1=C(Nc2cc(NCCc3ccccc3C)ccc2Cl)CCCC1=O` [Example 05-73, 3-((2-chloro-5-((2-methylphenethyl)amino)phenyl)amino)-2-methylcyclohex-2-enone], the melting point is 85 to 87 °C. Moreover, the IC50 in data set [1] fell in the range of 1000 to 10000 nM. Also, the IC50 in data set [2] was 1000 to 10000 nM.
As to `CC1=C(Nc2cc(NCc3ccccc3F)ccc2Cl)CCCC1=O` [Example 05-74, 3-((2-chloro-5-((2-fluorobenzyl)amino)phenyl)amino)-2-methylcyclohex-2-enone], the melting point was 103 to 105 °C. Moreover, the IC50 in data set [1] is less than 1000 nM. Besides, the IC50 in data set [2] is less than 1000 nM.
`CC1=C(Nc2cc(NCc3cccc(F)c3C)ccc2Cl)CCCC1=O` [Example 05-75, 3-((2-chloro-5-((3-fluoro-2-methylbenzyl)amino)phenyl)amino)-2-methylcyclohex-2-enone]: the melting point fell in the range of 160 to 162 °C. The molecule further yielded an IC50 in data set [1] of 1000 to 10000 nM. Also, in data set [2], the IC50 is less than 1000 nM.
In turn, `CC1=C(Nc2ccc(NCc3ccccc3C)cc2Cl)CCCC1=O` [Example 05-76, 3-((2-chloro-4-((2-methylbenzyl)amino)phenyl)amino)-2-methylcyclohex-2-enone] returned a melting point of 220 to 221 °C. In data set [1], this molecule returned an IC50 greater than 10000 nM. Besides, the IC50 in data set [2] is 1000 to 10000 nM.
As for `CC1=C(Nc2ccc(NCCc3ccccc3C)cc2Cl)CCCC1=O` [Example 05-77, 3-((2-chloro-4-((2-methylphenethyl)amino)phenyl)amino)-2-methyl-cyclohex-2-enone], the melting point lay in the range of 160 to 162 °C. The molecule also returned an IC50 in data set [1] of 1000 to 10000 nM. Besides, the IC50 in data set [2] was 1000 to 10000 nM.
The molecule `CC1=C(Nc2cccc(NCc3ccccc3C)c2Cl)CCCC1=O` [Example 05-78, 3-((2-chloro-3-((2-methylbenzyl)amino)phenyl)amino)-2-methylcyclohex-2-enone] gave a melting point of 132 to 135 °C. This molecule also registered a 50% inhibitory concentration (IC50) in data set [1] of 1000 to 10000 nM. Besides, in data set [2], the IC50 was less than 1000 nM.
`CC1=C(Nc2cccc(NCCc3ccccc3C)c2Cl)CCCC1=O` [Example 05-79, 3-((2-chloro-3-((2-methylphenethyl)amino)phenyl)amino)-2-methylcyclohex-2-enone] had a melting point of 157 to 160 °C. In data set [1], this molecule had an IC50 greater than 10000 nM. In data set [2], the IC50 was 1000 to 10000 nM.
For `CC1=C(Nc2cc(Nc3ccccc3C)ccc2Cl)CCCC1=O` [Example 05-81, 3-((2-chloro-5-(o-tolylamino)phenyl)amino)-2-methylcyclohex-2-enone] the same measures were 165 to 168 °C, 1000 to 10000 nM and less than 1000 nM.
`CC1=C(Nc2ccc(Nc3ccccc3C)cc2Cl)CCCC1=O` [Example 05-82, 3-((2-chloro-4-(o-tolylamino)phenyl)amino)-2-methylcyclohex-2-enone] registered a melting point of 68 to 70 °C. For the same molecule, in data set [1], the IC50 is greater than 10000 nM. For the same molecule, the IC50 in data set [2] was less than 1000 nM.
For `CC1=C(Nc2cc(NC(=O)/C=C\C(=O)O)ccc2Cl)CCCC1=O` [Example 05-83, (Z)-4-((4-chloro-3-((2-methyl-3-oxocyclohex-1-en-1-yl)amino)phenyl)-amino)-4-oxobut-2-enoic acid] the same measures were 182 to 185 °C, greater than 10000 nM and 1000 to 10000 nM.
Take `CC1=C(Nc2ccc(NC(=O)/C=C\C(=O)O)cc2Cl)CCCC1=O` [Example 05-84, (Z)-4-((3-chloro-4-((2-methyl-3-oxocyclohex-1-en-1-yl)amino)phenyl)-amino)-4-oxobut-2-enoic acid]: the melting point fell in the range of 200 to 202 °C. In addition, in data set [1], the IC50 was greater than 10000 nM. In addition, the IC50 in data set [2] was 1000 to 10000 nM.
